What was measured:
Format in all cases: in vivo
[1] = test system: Alopecurus myosuroides (ALOMY); assay: Pre-emergence herbicidal glasshouse test on Alopecurus myosuroides; conditions: pre-emergence, 1000 g/h, evaluated after 13 days
In short: (§1)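 Scored on a five-point scale (1 = 0-19% to 5 = 80-100% damage) 13 days after treatment. Application rate 1000 g/h in acetone/water (50:50) containing 0.5% Tween 20, sprayed one day post-sowing for pre-emergence or eight days for post-emergence; glasshouse at 24/16° C, 14 h light, 65% humidity.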

Setaria faberi (SETFA) [2] = assay: Pre-emergence herbicidal glasshouse test on Setaria faberi; conditions: pre-emergence, 1000 g/h, evaluated after 13 days
In short: as §1

[3] = test system: Echinochloa crus-galli (ECHCG); assay: Pre-emergence herbicidal glasshouse test on Echinochloa crus-galli; conditions: pre-emergence, 1000 g/h, evaluated after 13 days
In short: as §1

Solanum nigrum (SOLNI) [4] = assay: Pre-emergence herbicidal glasshouse test on Solanum nigrum; conditions: pre-emergence, 1000 g/h, evaluated after 13 days
In short: as §1

[5] = test system: Amaranthus retoflexus (AMARE); assay: Pre-emergence herbicidal glasshouse test on Amaranthus retoflexus; conditions: pre-emergence, 1000 g/h, evaluated after 13 days
In short: as §1

[6] = test system: Ipomoea hederacea (IPOHE); assay: Pre-emergence herbicidal glasshouse test on Ipomoea hederacea; conditions: pre-emergence, 1000 g/h, evaluated after 13 days
In short: as §1

[7] = test system: Alopecurus myosuroides (ALOMY); assay: Post-emergence herbicidal glasshouse test on Alopecurus myosuroides; conditions: post-emergence, 1000 g/h, evaluated after 13 days
In short: as §1

Setaria faberi (SETFA) [8] = assay: Post-emergence herbicidal glasshouse test on Setaria faberi; conditions: post-emergence, 1000 g/h, evaluated after 13 days
In short: as §1

[9] = test system: Echinochloa crus-galli (ECHCG); assay: Post-emergence herbicidal glasshouse test on Echinochloa crus-galli; conditions: post-emergence, 1000 g/h, evaluated after 13 days
In short: as §1

Solanum nigrum (SOLNI) [10] = assay: Post-emergence herbicidal glasshouse test on Solanum nigrum; conditions: post-emergence, 1000 g/h, evaluated after 13 days
In short: as §1

[11] = test system: Amaranthus retoflexus (AMARE); assay: Post-emergence herbicidal glasshouse test on Amaranthus retoflexus; conditions: post-emergence, 1000 g/h, evaluated after 13 days
In short: as §1

[12] = test system: Ipomoea hederacea (IPOHE); assay: Post-emergence herbicidal glasshouse test on Ipomoea hederacea; conditions: post-emergence, 1000 g/h, evaluated after 13 days
In short: as §1

Row | SMILES | PRE Application ALOMY herbicidal damage (five point scale) [1] | PRE Application SETFA herbicidal damage (five point scale) (Setaria faberi (SETFA) [2]) | PRE Application ECHCG herbicidal damage (five point scale) [3] | PRE Application SOLNI herbicidal damage (five point scale) (Solanum nigrum (SOLNI) [4]) | PRE Application AMARE herbicidal damage (five point scale) [5] | PRE Application IPOHE herbicidal damage (five point scale) [6] | POST Application ALOMY herbicidal damage (five point scale) [7] | POST Application SETFA herbicidal damage (five point scale) (Setaria faberi (SETFA) [8]) | POST Application ECHCG herbicidal damage (five point scale) [9] | POST Application SOLNI herbicidal damage (five point scale) (Solanum nigrum (SOLNI) [10]) | POST Application AMARE herbicidal damage (five point scale) [11] | POST Application IPOHE herbicidal damage (five point scale) [12] | further results
1 | COc1c(Cl)ccc(-c2cnn(C)c(=O)c2O)c1F [Compound 1.063] | 1 (1=0-19% damage) | 1 (1=0-19% damage) | 1 (1=0-19% damage) | 1 (1=0-19% damage) | 1 (1=0-19% damage) | 1 (1=0-19% damage) | 1 (1=0-19% damage) | 1 (1=0-19% damage) | 1 (1=0-19% damage) | 2 (2=20-39% damage) | 3 (3=40-59% damage) | 3 (3=40-59% damage) | –
2 | COCc1ccc(-c2cnn(C)c(=O)c2O)c(S(C)(=O)=O)c1 [Compound 2.040] | 5 (5=80-100% damage) | 4 (4=60-79% damage) | 5 (5=80-100% damage) | 5 (5=80-100% damage) | 5 (5=80-100% damage) | 3 (3=40-59% damage) | 5 (5=80-100% damage) | 5 (5=80-100% damage) | 5 (5=80-100% damage) | 5 (5=80-100% damage) | 5 (5=80-100% damage) | 5 (5=80-100% damage) | –
3 | Cn1ncc(-c2ccc(Cl)c(F)c2Cl)c(O)c1=O [Compound 1.092] | 1 (1=0-19% damage) | 1 (1=0-19% damage) | 1 (1=0-19% damage) | 1 (1=0-19% damage) | 1 (1=0-19% damage) | 1 (1=0-19% damage) | 1 (1=0-19% damage) | 1 (1=0-19% damage) | 1 (1=0-19% damage) | 2 (2=20-39% damage) | 1 (1=0-19% damage) | 2 (2=20-39% damage) | –
4 | COc1ccc(-c2cnn(C)c(=O)c2O)c(OC)n1 [Compound 1.153] | – | – | – | – | – | – | – | – | – | – | – | – | herbicidal damage, PRE Application ALOMY ([1]; five point scale): 1 (1=0-19% damage); herbicidal damage, PRE Application SETFA (Setaria faberi (SETFA) [2]; five point scale): 1 (1=0-19% damage); herbicidal damage, PRE Application ECHCG ([3]; five point scale): 2 (2=20-39% damage); herbicidal damage, PRE Application SOLNI (Solanum nigrum (SOLNI) [4]; five point scale): 2 (2=20-39% damage); herbicidal damage, PRE Application AMARE ([5]; five point scale): 2 (2=20-39% damage); herbicidal damage, PRE Application IPOHE ([6]; five point scale): 3 (3=40-59% damage); herbicidal damage, POST Application ALOMY ([7]; five point scale): 1 (1=0-19% damage); herbicidal damage, POST Application SETFA (Setaria faberi (SETFA) [8]; five point scale): 1 (1=0-19% damage); herbicidal damage, POST Application ECHCG ([9]; five point scale): 1 (1=0-19% damage); herbicidal damage, POST Application SOLNI (Solanum nigrum (SOLNI) [10]; five point scale): 4 (4=60-79% damage); herbicidal damage, POST Application AMARE ([11]; five point scale): 2 (2=20-39% damage); herbicidal damage, POST Application IPOHE ([12]; five point scale): 2 (2=20-39% damage)
5 | C#Cn1ncc(-c2ccc(Cl)cc2S(C)(=O)=O)c(O)c1=O [Compound 2.011] | 5 (5=80-100% damage) | 5 (5=80-100% damage) | 5 (5=80-100% damage) | 5 (5=80-100% damage) | 5 (5=80-100% damage) | 5 (5=80-100% damage) | 5 (5=80-100% damage) | 5 (5=80-100% damage) | 5 (5=80-100% damage) | 5 (5=80-100% damage) | 5 (5=80-100% damage) | 5 (5=80-100% damage) | –
6 | Cn1ncc(-c2cccn(-c3cccc(C#N)c3)c2=O)c(O)c1=O [Compound 1.138] | 1 (1=0-19% damage) | 1 (1=0-19% damage) | 1 (1=0-19% damage) | 1 (1=0-19% damage) | 1 (1=0-19% damage) | 1 (1=0-19% damage) | 1 (1=0-19% damage) | 5 (5=80-100% damage) | 4 (4=60-79% damage) | 5 (5=80-100% damage) | 5 (5=80-100% damage) | 1 (1=0-19% damage) | –
7 | Cn1ncc(-c2ccc(S(C)(=O)=O)c(O)c2Cl)c(O)c1=O [Compound 1.108] | 1 (1=0-19% damage) | 1 (1=0-19% damage) | 1 (1=0-19% damage) | 1 (1=0-19% damage) | 1 (1=0-19% damage) | 1 (1=0-19% damage) | 1 (1=0-19% damage) | 1 (1=0-19% damage) | 1 (1=0-19% damage) | 3 (3=40-59% damage) | 3 (3=40-59% damage) | 1 (1=0-19% damage) | –
8 | Cn1ncc(-c2ccc(C(F)(F)F)cc2C(F)(F)F)c(O)c1=O [Compound 1.033] | 1 (1=0-19% damage) | 1 (1=0-19% damage) | 2 (2=20-39% damage) | 5 (5=80-100% damage) | 5 (5=80-100% damage) | 1 (1=0-19% damage) | 2 (2=20-39% damage) | 1 (1=0-19% damage) | 2 (2=20-39% damage) | 5 (5=80-100% damage) | 5 (5=80-100% damage) | 5 (5=80-100% damage) | –
9 | Cn1ncc(-n2ccc(C(F)(F)F)c(-c3cccc(Cl)c3)c2=O)c(O)c1=O [Compound 1.037] | 4 (4=60-79% damage) | 4 (4=60-79% damage) | 5 (5=80-100% damage) | 5 (5=80-100% damage) | 5 (5=80-100% damage) | 1 (1=0-19% damage) | 4 (4=60-79% damage) | 4 (4=60-79% damage) | 4 (4=60-79% damage) | 5 (5=80-100% damage) | 5 (5=80-100% damage) | 4 (4=60-79% damage) | –
10 | Cn1ncc(-c2ccc(S(C)(=O)=O)c(F)c2Cl)c(O)c1=O [Compound 1.021] | 2 (2=20-39% damage) | 1 (1=0-19% damage) | 5 (5=80-100% damage) | 1 (1=0-19% damage) | 5 (5=80-100% damage) | 2 (2=20-39% damage) | 1 (1=0-19% damage) | 1 (1=0-19% damage) | 5 (5=80-100% damage) | 5 (5=80-100% damage) | 5 (5=80-100% damage) | 5 (5=80-100% damage) | –
